Experimental data reported in article PMC8388771, “Cationic Peptidomimetic Amphiphiles Having a N-Aryl- or N-Naphthyl-1,2,3-Triazole Core Structure Targeting Clostridioides (Clostridium) difficile: Synthesis, Antibacterial Evaluation, and an In Vivo C. difficile Infection Model” (Antibiotics, 2021).
Read-outs that look alike come from different tables or passages of the source.

Assays:
C. difficile ATCC 700057 = experiment: Primary MIC assay, C. difficile ATCC 700057; assay type: cell-based, Clostridioides difficile; details: Table 1; for MIC: Clostridioides difficile, ATCC700057, read-out: MIC C. difficile ATCC 700057
Method: (§1) The N-arytriazole and N-naphthyltriazole peptidomimetics were subjected to antimicrobial screening. […] Vancomycin, colistin, fluconazole, and tamoxifen were used as positive controls (see Table 1 for details).
(§2) Primary screening (Gram-positive bacteria). Primary MIC assays were performed as described by the Clinical and Laboratory Standards Institute for aerobic and anaerobic bacteria. MIC values for vancomycin were within acceptable QC ranges.

C. difficile 132 (RT027) = experiment: Primary MIC assay, C. difficile 132 (RT027); assay type: cell-based, Clostridioides difficile; details: Table 1; for MIC: Clostridioides difficile, read-out: MIC C. difficile 132 (RT027)
Method: as §1, §2

S. aureus ATCC 29213 = experiment: Primary MIC assay, S. aureus ATCC 29213; assay type: cell-based; details: Staphylococcus aureus, ATCC29213; Table 1; read-out: MIC S. aureus ATCC 29213
Method: as §1, §2

S. aureus NCTC 10442 = experiment: Primary MIC assay, S. aureus NCTC 10442 (MRSA); assay type: cell-based; details: Staphylococcus aureus, MRSA
Method: as §1, §2

E. faecalis ATCC 29212 = experiment: Primary MIC assay, E. faecalis ATCC 29212; assay type: cell-based, Enterococcus faecalis; details: Enterococcus faecalis, ATCC29212; Table 1; read-out: MIC E. faecalis ATCC 29212
Method: as §1, §2

S. pneumoniae ATCC 49619 = experiment: Primary MIC assay, S. pneumoniae ATCC 49619; assay type: cell-based, Streptococcus pneumoniae; details: Streptococcus pneumoniae, ATCC49619; Table 1; read-out: MIC S. pneumoniae ATCC 49619
Method: as §1, §2

E. coli ATCC 25922 [1] = experiment: Primary MIC assay, E. coli ATCC 25922; assay type: cell-based; details: Escherichia coli, ATCC25922; Table 1; read-out: MIC E. coli ATCC 25922
[2] = Cytotoxicity (CC50) assay by CO-ADD; assay type: cell-based, human; details: human, HEK293 cells (ATCC CRL-1573); Table 1; cytotoxicity on HEK293 cells, tested at ≤32 µg/mL
From the text: as §1
(§3) Secondary screening (MRSA and Gram-negative bacteria) and cytotoxicity assay–performed by the Community for Open Antimicrobial Drug Discovery (CO-ADD). Samples were provided to CO-ADD [29] for antimicrobial screening by whole cell growth inhibition assays.
Cytotoxicity Assay. These were performed as described previously.

human erythrocytes = experiment: Hemolysis assay, HC50 determination; assay type: cell-based
Method: Hemolysis assay (human erythrocytes)–HC50 determination. These were performed as described previously.

S. aureus ATCC 43300 = experiment: CO-ADD MIC assay, S. aureus ATCC 43300 (MRSA); assay type: cell-based; details: Staphylococcus aureus, MRSA, read-out: MIC S. aureus ATCC 43300
From the text: as §1, §3
(§4) Bacterial Inhibition–MIC Assay. These were performed as described previously.

P. aeruginosa ATCC 27853 = experiment: CO-ADD MIC assay, P. aeruginosa ATCC 27853; assay type: cell-based; details: Pseudomonas aeruginosa, ATCC27853, Table S1
From the text: as §1, §3, §4

[3] = system: K. pneumoniae ATCC 700603; experiment: CO-ADD MIC assay, K. pneumoniae ATCC 700603; assay type: cell-based; details: Klebsiella pneumoniae, ATCC700603, Table S1, multi-drug resistant
From the text: as §1, §3, §4

A. baumannii ATCC 19606 = experiment: CO-ADD MIC assay, A. baumannii ATCC 19606; assay type: cell-based; details: Acinetobacter baumannii, ATCC19606, Table S1
From the text: as §1, §3, §4

E. coli ATCC 25922 [4] = experiment: CO-ADD MIC assay, E. coli ATCC 25922; assay type: cell-based; details: Escherichia coli, ATCC25922, Table S1
From the text: as §1, §3, §4

C. albicans ATCC 90028 = experiment: CO-ADD MIC assay, C. albicans ATCC 90028; assay type: cell-based; details: Candida albicans, ATCC90028, Table S1
From the text: as §1, §3

[5] = system: Cryptococcus neoformans var. grubii ATCC 208821; experiment: CO-ADD MIC assay, C. neoformans var. grubii ATCC 208821; assay type: cell-based; details: for MIC: Cryptococcus neoformans, ATCC208821, Table S1; for MIC C. neoformans var. grubii ATCC 208821: Table S1
From the text: as §1, §3

[6] = system: C. difficile strain M7404 (RT027); experiment: In vivo murine model of CDI treatment; set-up: species or system C57BL/6J mice
Method: Disease Treatment Model. These experiments were performed as previously described. Mice were humanely killed at the onset of severe disease or at the end of the experiment (day 4), as previously described.
Statistical Analysis. Statistical analysis was performed using Prism 7 (GraphPad Software). The Kaplan–Meier survival curves were assessed using a log-rank (Mantel–Cox) test. Weight loss, spore shedding, fecal consistency, and physiological appearance data were analyzed by one-way ANOVA with a post hoc Tukey’s multiple comparison test. Differences in data values were considered significant at a p value of <0.05.
Figure 3 C57BL/6J mice (n = 5 per group) were infected with 10^5 spores of C. difficile strain M7404 (RT027). Six hours post-infection and then every 12 h thereafter, mice were administered either 10% DMSO (blue) or 2.5 mg (100 mg/kg in 10% DMSO) of compound 40 (red) by oral gavage. Mice were monitored daily for survival (a) and weight loss relative to day 0, which was the day of infection (b). Fecal spore load at 1-day post-infection was determined by plating (c). Data are presented as CFU/gram feces, with each point representing a single mouse. Mouse cages were scored on day 1 post-infection for appearance (d) and mice were individually assessed for fecal consistency (e) and physiological appearance (f). Data represent the mean ±S.E.M. and statistical significance was assessed using a log-rank (Mantel–Cox) test or one-way ANOVA with a post hoc Tukey’s multiple comparison test. […]
The murine model of CDI was conducted with project collaborators at Monash University. The murine model of CDI was performed by pretreating cohorts of five mice that had been earlier infected via oral gavage with hypervirulent M7404 C. difficile spores. The infection was allowed to develop for 12 h before the trial drug was administered every 12 h for five days. The mice received a single dosage of 2.5 mg of […] (i.e.
100 mg/kg for an average 25 g mouse) administered in a solvent mixture of 10% DMSO and H2O at each 12 h dosing period. The mice body weight was checked every day. If a mouse lost 10% of its body weight in the first 24 h, then the infection was developing, and the mouse was separated from the trial and culled for ethical reasons. The whole survival rate for every drug cohort was utilized to measure effectiveness of that drug.
Other physiological parameters such as cage appearance scores and faecal consistency scores were additional measures for the efficacy of the drug in this murine trial. The experimental data of the in vivo CDI model can be found in Section 3.3.3 and the experimental procedures can be found in Section 6.4.3.
Compound 40 was selected for a murine model of CDI study because of its better antimicrobial potency against C. difficile and its better water solubility profile (Section 3.2.7). Compound 40 was prepared on a larger scale i.e. nearly 300 mg for the purpose of in vivo mouse model of CDI at Monash University. […]
In the secondary CDI mouse model trial, the solution (10% v/v DMSO/H2O) of the compound 40 was ad-ministered to mice by oral gavage.

[7] = Comparative solubility assay (solubility ratio relative to compound 1); assay type: physicochemical
From the text: While the selectivity ratio could be more substantial, this is acceptable for the future development of these gastrointestinal focused compounds. […] These outcomes were confirmed with no issues during the mouse model trials with sufficient solubility in the dosage regimen. Variations on the triazole and O-naphthyl substituents could be made in future studies with the view of enhancing antibacterial activity against C. difficile.

C. difficile = experiment: MIC against C. difficile, strain not given; assay type: cell-based; details: Clostridioides difficile, strains of Table 1
Method: as §2

[8] = MRSA / NCTC 10442 / NCTC 104422, Table 2, read-out: MIC S. aureus NCTC 104422
[9] = Table 1, read-out: MIC S. aureus NCTC 10442
[10] = Table 1, lysis of human erythrocytes
[11] = Table 2, footnote says lysis of sheep erythrocytes
[12] = Table S1, footnote says lysis of sheep erythrocytes

Compound	MIC (C. difficile ATCC 700057) [µg/mL]	MIC (C. difficile 132 (RT027)) [µg/mL]	MIC (S. aureus ATCC 29213) [µg/mL]	MIC (S. aureus NCTC 10442; [9]) [µg/mL]	MIC (E. faecalis ATCC 29212) [µg/mL]	MIC (S. pneumoniae ATCC 49619) [µg/mL]	MIC (E. coli ATCC 25922 [1]) [µg/mL]	MIC (S. aureus ATCC 43300; Table S1, CO-ADD) [µg/mL]	MIC (P. aeruginosa ATCC 27853) [µg/mL]	MIC [3] [µg/mL]	MIC (A. baumannii ATCC 19606) [µg/mL]	MIC (E. coli ATCC 25922 [4]) [µg/mL]	MIC (C. albicans ATCC 90028) [µg/mL]	MIC [5] [µg/mL]	MIC C. difficile ATCC 700057 (C. difficile ATCC 700057) [µg/mL]	MIC C. difficile 132 (RT027) (C. difficile 132 (RT027)) [µg/mL]	MIC (S. aureus NCTC 10442; [8]) [µg/mL]	CC50 [2] [µg/mL]	HC50 (human erythrocytes; [10]) [µg/mL]	HC50 (human erythrocytes; [12]) [µg/mL]	further results
CC(C)CCc1cn(-c2c(OCC(=O)N[C@H](CCCCN)C(=O)N[C@H](CCCNC(=N)N)Cn3cc(C4CCCCC4)nn3)ccc3ccccc23)nn1.Cl.Cl [Compound 40, (R)-6-Amino-N-((R)-1-(4-cyclohexyl-1H-1,2,3-triazol-1-yl)-5-guanidinopentan-2-yl)-2-(2-((1-(4-isopentyl-1H-1,2,3-triazol-1-yl)naphthalen-2-yl)oxy)acetamido)hexanamide dihydrochloride]	8	8	16	16	32	16	64	8	32	> 32	32	32	> 32	4 to 8	8	8	16	32	32	32	HC50 (human erythrocytes; [11]): 32 µg/mL; MIC (S. aureus ATCC 43300; Table 2): 8 µg/mL; MIC C. neoformans var. grubii ATCC 208821 [5]: 4 µg/mL; disease onset compared to mice treated with DMSO ([6]; 100 mg/kg oral gavage): delayed disease onset; effect on spore numbers shed in the feces ([6]; 1-day post-infection): no effect; greater survival compared with mice treated with DMSO ([6]; day 1 post-infection): 40%; individual fecal score vs DMSO group ([6]; day 1 post-infection): no significant difference; overall cage appearance score compared to DMSO ([6]; day 1 post-infection): lower; physiological appearance score vs DMSO group ([6]; day 1 post-infection): no significant difference; survival outcome ([6]; day 2): succumbed to infection by day 2; survival observed after 24 h ([6]; mice, 100 mg/kg in 10% DMSO by oral gavage every 12 h, DMSO control 40%): 80%; effect on mouse weight ([6]; weight loss relative to day 0): no effect; relative solubility ratio (relative to compound 1) [7]: 5; MIC (C. difficile): 8 µg/mL
CC(C)CCc1cnnn1-c1ccccc1OCC(=O)N[C@H](CCCNC(=N)N)Cn1cc(CC2CCCCC2)nn1.Cl [Compound 15]	64	64	16	16	16	16	128	32	> 32	> 32	> 32	> 32	> 32	32				> 32	>32	> 32	
CC(C)CCc1cn(-c2c(OCC(=O)N[C@H](CCCNC(=N)N)Cn3cc(CC4CCCCC4)nn3)ccc3ccccc23)nn1.Cl [Compound 22]	32	32	4	4	8	8	32	4	> 32	> 32	> 32	32	16	32				> 32	>32	> 32	

Further lines, with some results ahead:

MIC (C. difficile ATCC 700057) [µg/mL]	MIC (C. difficile 132 (RT027)) [µg/mL]	MIC (S. aureus ATCC 29213) [µg/mL]	MIC (S. aureus NCTC 10442; [9]) [µg/mL]	MIC (E. faecalis ATCC 29212) [µg/mL]	MIC (S. pneumoniae ATCC 49619) [µg/mL]	MIC (E. coli ATCC 25922 [1]) [µg/mL]	MIC (S. aureus ATCC 43300; Table S1, CO-ADD) [µg/mL]	MIC (P. aeruginosa ATCC 27853) [µg/mL]	MIC [3] [µg/mL]	MIC (A. baumannii ATCC 19606) [µg/mL]	MIC (E. coli ATCC 25922 [4]) [µg/mL]	MIC (C. albicans ATCC 90028) [µg/mL]	MIC [5] [µg/mL]	Compound	MIC C. difficile ATCC 700057 (C. difficile ATCC 700057) [µg/mL]	MIC C. difficile 132 (RT027) (C. difficile 132 (RT027)) [µg/mL]	MIC (S. aureus NCTC 10442; [8]) [µg/mL]	CC50 [2] [µg/mL]	HC50 (human erythrocytes; [10]) [µg/mL]	HC50 (human erythrocytes; [12]) [µg/mL]	further results
8	8	8	8	8	8	32	8	32	> 32	32	32	> 32	4 to 8	CC(C)CCc1cn(-c2c(OCC(=O)N[C@H](CCCCN)C(=O)N[C@H](CCCNC(=N)N)Cn3cc(Cc4ccccc4)nn3)ccc3ccccc23)nn1.Cl.Cl [Compound 42]	8	8	8	32	32	32	HC50 (human erythrocytes; [11]): 32 µg/mL; MIC (S. aureus ATCC 43300; Table 2): 8 µg/mL; MIC C. neoformans var. grubii ATCC 208821 [5]: 8 µg/mL; relative solubility ratio (relative to compound 1) [7]: 4; MIC (C. difficile): 8 µg/mL
> 32	> 32	> 32	> 32	> 32	> 32	> 32	> 32	> 32	> 32	> 32	> 32	> 32	> 32	CC(C)CCOc1ccccc1-n1nncc1COCC(=O)N[C@H](CCCCN)C(=O)N[C@H](CCCNC(=N)N)Cn1cc(C2CCCCC2)nn1 [Compound 48]				> 32	24.5	24.5	
